US20250320213A1, “Nitrogen-Containing Heterocyclic Compounds” (Pfizer Inc., priority 2024, published 2025)
pEC50, pIC50: −log10 of the molar value. Read-outs that look alike come from different tables or passages of the source.

Columns and labels:
[1] = system: CCL17 secretion in peripheral human whole blood; test: Human Whole Blood (HWB) CCL17 TR-FRET Assay (IL-13 stimulated CCL17 secretion); format: cell-based
Outline: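 TR-FRET sandwich immunoassay (665/615 nm ratio) read CCL17 in serum from heparinized whole blood after 16 h RT detection. Blood was exposed to compound for 2 h at 37 °C, then to 10 ng/mL IL-13 (final) for 48 h. IC50 from 11-point, 3-fold titrations in duplicate.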

STAT6 = biological target: T1, STAT6 (Homo sapiens, UniProt P42226); test: STAT6 Reporter Luciferase Assay (IL-13 stimulated HaCaT keratinocyte NanoLuc reporter cells); format: cell-based; settings: read-out: Reporter EC50
T1 construct: stably transfected HaCaT keratinocyte cell line, which expresses NanoLuc luciferase reporter gene under the transcriptional control of the STAT6 responsive promoter; endogenous in cells; host or cells: HaCaT keratinocyte reporter cell line (stably transfected with a NanoLuc reporter)
T1 sequence (P42226 1-847): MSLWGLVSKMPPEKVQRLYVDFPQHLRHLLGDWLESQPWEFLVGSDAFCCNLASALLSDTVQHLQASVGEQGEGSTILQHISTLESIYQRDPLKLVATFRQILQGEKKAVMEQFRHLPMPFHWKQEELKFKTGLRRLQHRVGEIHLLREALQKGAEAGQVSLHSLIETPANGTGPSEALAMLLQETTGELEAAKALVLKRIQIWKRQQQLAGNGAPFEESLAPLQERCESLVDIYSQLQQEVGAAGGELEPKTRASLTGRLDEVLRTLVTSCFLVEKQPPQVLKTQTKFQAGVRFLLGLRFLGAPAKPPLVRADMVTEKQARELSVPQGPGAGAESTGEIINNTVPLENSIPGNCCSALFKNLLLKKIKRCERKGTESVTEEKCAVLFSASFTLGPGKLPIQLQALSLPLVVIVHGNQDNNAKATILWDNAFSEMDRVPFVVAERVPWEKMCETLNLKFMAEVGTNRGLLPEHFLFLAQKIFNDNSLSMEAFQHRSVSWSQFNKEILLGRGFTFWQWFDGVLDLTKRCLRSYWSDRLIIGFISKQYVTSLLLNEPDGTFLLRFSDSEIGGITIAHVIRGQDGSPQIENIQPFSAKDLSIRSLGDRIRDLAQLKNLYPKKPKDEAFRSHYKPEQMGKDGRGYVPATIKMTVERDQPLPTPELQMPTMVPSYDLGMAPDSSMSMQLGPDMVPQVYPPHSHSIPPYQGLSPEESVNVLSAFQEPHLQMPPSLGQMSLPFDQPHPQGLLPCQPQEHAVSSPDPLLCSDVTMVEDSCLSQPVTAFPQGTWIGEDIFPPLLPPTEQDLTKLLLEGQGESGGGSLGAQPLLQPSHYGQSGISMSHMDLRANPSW
Outline: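 HaCaT IL-13Ra2-promoter NanoLuc reporter; cpd 2 h 37 °C in DMEM/2% HI FBS; IL-13 0.12 nM final, 4 h; Nano-Glo luminescence.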

[2] = Homo sapiens, 48 h, inhibition of CCL17 secretion in human whole blood, 10 ng/mL IL13, 48 hours
[3] = STAT6 NanoLuc luciferase reporter, IL-13 stimulated HaCaT keratinocyte cells
[4] = Homo sapiens, 48 h, human whole blood, IL-13 stimulated
[5] = IL-13 stimulated HaCaT STAT6 NanoLuc reporter cells

Row | pIC50 [1, 2] | pEC50 (STAT6; [3]) | pIC50 [1, 4] | pEC50 (STAT6; [5]) | Compound | pIC50 ([1]; human whole blood, IL-13 stimulated, 48 hours)
1 | 7.18 | 7.96 | – | – | CC(C)n1nc(C(=O)NCc2ccc(NC(=O)N3CCC(OCCO)CC3)cc2)c2c1CCN(c1ccc(C(=O)N(C)C)cn1)C2 [Example 162, 5-(5-(dimethylcarbamoyl)pyridin-2-yl)-N-(4-(4-(2-hydroxyethoxy)piperidine-1-carboxamido)benzyl)-1-isopropyl-4,5,6,7-tetrahydro-1H-pyrazolo[4,3-c]pyridine-3-carboxamide] | –
2 | 7.52 | 7.80 | – | – | CC(C)n1nc(C(=O)NCc2ccc(NC(=O)N3CC(C)(N)C3)cc2)c2c1CCN(c1ccc(C(=O)N(C)C)cn1)C2 [Example 163, N-(4-(3-amino-3-methylazetidine-1-carboxamido)benzyl)-5-(5-(dimethylcarbamoyl)pyridin-2-yl)-1-isopropyl-4,5,6,7-tetrahydro-1H-pyrazolo[4,3-c]pyridine-3-carboxamide] | –
3 | 6.81 | 7.85 | – | – | COC1(C)CN(C(=O)Nc2ccc(CNC(=O)c3nn(C(C)C)c4c3CN(c3ccc(C(=O)N(C)C)cn3)CC4)cc2)C1 [Example 165, 5-(5-(dimethylcarbamoyl)pyridin-2-yl)-1-isopropyl-N-(4-(3-methoxy-3-methylazetidine-1-carboxamido)benzyl)-4,5,6,7-tetrahydro-1H-pyrazolo[4,3-c]pyridine-3-carboxamide] | –
4 | 7.68 | 8.40 | – | – | CO[C@H]1CN(C(=O)Nc2ccc(CNC(=O)c3nn(C(C)C)c4c3CN(c3ccc(C(=O)N(C)C)cn3)CC4)cc2)C[C@@H]1O [Example 166, 5-(5-(dimethylcarbamoyl)pyridin-2-yl)-N-(4-((3S,4S)-3-hydroxy-4-methoxypyrrolidine-1-carboxamido)benzyl)-1-isopropyl-4,5,6,7-tetrahydro-1H-pyrazolo[4,3-c]pyridine-3-carboxamide] | –
5 | 6.81 | 7.54 | – | – | CC(C)n1nc(C(=O)NCc2ccc(NC(=O)N3CCO[C@@H](CO)C3)cc2)c2c1CCN(c1ccc(C(=O)N(C)C)cn1)C2 [Example 167, (R)-N-(4-((5-(5-(dimethylcarbamoyl)pyridin-2-yl)-1-isopropyl-4,5,6,7-tetrahydro-1H-pyrazolo[4,3-c]pyridine-3-carboxamido)methyl)phenyl)-2-(hydroxymethyl)morpholine-4-carboxamide] | –
6 | 6.95 | 7.62 | – | – | CC(C)n1nc(C(=O)NCc2ccc(NC(=O)N(C)CC3COC3)cc2)c2c1CCN(c1ccc(C(=O)N(C)C)cn1)C2 [Example 168, 5-(5-(dimethylcarbamoyl)pyridin-2-yl)-1-isopropyl-N-(4-(3-methyl-3-(oxetan-3-ylmethyl)ureido)benzyl)-4,5,6,7-tetrahydro-1H-pyrazolo[4,3-c]pyridine-3-carboxamide] | –
7 | 6.90 | 7.49 | – | – | CC(C)n1nc(C(=O)NCc2ccc(NC(=O)N[C@H]3C[C@@H](O)C3)cc2)c2c1CCN(c1ccc(C(=O)N(C)C)cn1)C2 [Example 169] | –
8 | 7.09 | 7.77 | – | – | CC(C)n1nc(C(=O)NCc2ccc(NC(=O)N3CC[C@H](N(C)C)C3)cc2)c2c1CCN(c1ccc(C(=O)N(C)C)cn1)C2 [Example 170, (S)-N-(4-(3-(dimethylamino)pyrrolidine-1-carboxamido)benzyl)-5-(5-(dimethylcarbamoyl)pyridin-2-yl)-1-isopropyl-4,5,6,7-tetrahydro-1H-pyrazolo[4,3-c]pyridine-3-carboxamide] | –
9 | 6.82 | 7.96 | – | – | CC(C)n1nc(C(=O)NCc2ccc(NC(=O)N3CCC(C)(C#N)CC3)cc2)c2c1CCN(c1ccc(C(=O)N(C)C)cn1)C2 [Example 172, N-(4-(4-cyano-4-methylpiperidine-1-carboxamido)benzyl)-5-(5-(dimethylcarbamoyl)pyridin-2-yl)-1-isopropyl-4,5,6,7-tetrahydro-1H-pyrazolo[4,3-c]pyridine-3-carboxamide] | –
10 | 7.14 | 7.96 | – | – | CC(C)n1nc(C(=O)NCc2ccc(NC(=O)N3CCOCC3)cc2)c2c1CCN(c1ccc(C(=O)N(C)C)cn1)C2 [Example 173, N-(4-((5-(5-(dimethylcarbamoyl)pyridin-2-yl)-1-isopropyl-4,5,6,7-tetrahydro-1H-pyrazolo[4,3-c]pyridine-3-carboxamido)methyl)phenyl)morpholine-4-carboxamide] | –
11 | 7.17 | 8.15 | – | – | CC(C)n1nc(C(=O)NCc2ccc(NC(=O)N3CCC(CO)CC3)cc2)c2c1CCN(c1ccc(C(=O)N(C)C)cn1)C2 [Example 175, 5-(5-(dimethylcarbamoyl)pyridin-2-yl)-N-(4-(4-(hydroxymethyl)piperidine-1-carboxamido)benzyl)-1-isopropyl-4,5,6,7-tetrahydro-1H-pyrazolo[4,3-c]pyridine-3-carboxamide] | –
12 | 7.29 | 8.10 | – | – | CC(C)n1nc(C(=O)NCc2ccc(NC(=O)N3CCN(C)CC3)cc2)c2c1CCN(c1ccc(C(=O)N(C)C)cn1)C2 [Example 177, 5-(5-(dimethylcarbamoyl)pyridin-2-yl)-1-isopropyl-N-(4-(4-methylpiperazine-1-carboxamido)benzyl)-4,5,6,7-tetrahydro-1H-pyrazolo[4,3-c]pyridine-3-carboxamide] | –
13 | 7.35 | 8.15 | – | – | COCCNC(=O)Nc1ccc(CNC(=O)c2nn(C(C)C)c3c2CN(c2ccc(C(=O)N(C)C)cn2)CC3)cc1 [Example 178, 5-(5-(dimethylcarbamoyl)pyridin-2-yl)-1-isopropyl-N-(4-(3-(2-methoxyethyl)ureido)benzyl)-4,5,6,7-tetrahydro-1H-pyrazolo[4,3-c]pyridine-3-carboxamide] | –
14 | 7.19 | 8.15 | – | – | CO[C@@H]1CCN(C(=O)Nc2ccc(CNC(=O)c3nn(C(C)C)c4c3CN(c3ccc(C(=O)N(C)C)cn3)CC4)cc2)C1 [Example 179, (R)-5-(5-(dimethylcarbamoyl)pyridin-2-yl)-1-isopropyl-N-(4-(3-methoxypyrrolidine-1-carboxamido)benzyl)-4,5,6,7-tetrahydro-1H-pyrazolo[4,3-c]pyridine-3-carboxamide] | –
15 | 7.26 | 7.74 | – | – | CC(C)n1nc(C(=O)NCc2ccc(NC(=O)N(C)CCO)cc2)c2c1CCN(c1ccc(C(=O)N(C)C)cn1)C2 [Example 180, 5-(5-(dimethylcarbamoyl)pyridin-2-yl)-N-(4-(3-(2-hydroxyethyl)-3-methylureido)benzyl)-1-isopropyl-4,5,6,7-tetrahydro-1H-pyrazolo[4,3-c]pyridine-3-carboxamide] | –
16 | 6.36 | 6.59 | – | – | CC(C)n1nc(C(=O)NCc2ccc(NC(=O)NCC3COC3)cc2)c2c1CCN(c1ccc(C(=O)N(C)C)cn1)C2 [Example 181, 5-(5-(dimethylcarbamoyl)pyridin-2-yl)-1-isopropyl-N-(4-(3-(oxetan-3-ylmethyl)ureido)benzyl)-4,5,6,7-tetrahydro-1H-pyrazolo[4,3-c]pyridine-3-carboxamide] | –
17 | – | – | 6.88 | 7.77 | CC(C)n1nc(C(=O)NCc2ccc(NC(=O)N3CC[C@H](C#N)C3)cc2)c2c1CCN(c1ccc(C(=O)N(C)C)cn1)C2 [Example 182, (S)-N-(4-(3-cyanopyrrolidine-1-carboxamido)benzyl)-5-(5-(dimethylcarbamoyl)pyridin-2-yl)-1-isopropyl-4,5,6,7-tetrahydro-1H-pyrazolo[4,3-c]pyridine-3-carboxamide] | –
18 | – | – | 7.17 | 7.80 | CC(C)n1nc(C(=O)NCc2ccc(NC(=O)N3CC[C@@H](C#N)C3)cc2)c2c1CCN(c1ccc(C(=O)N(C)C)cn1)C2 [Example 183, (R)-N-(4-(3-cyanopyrrolidine-1-carboxamido)benzyl)-5-(5-(dimethylcarbamoyl)pyridin-2-yl)-1-isopropyl-4,5,6,7-tetrahydro-1H-pyrazolo[4,3-c]pyridine-3-carboxamide] | –

Row | Compound | pIC50 [1, 2] | pEC50 (STAT6; [3]) | pIC50 [1, 4] | pEC50 (STAT6; [5]) | pIC50 ([1]; human whole blood, IL-13 stimulated, 48 hours)
19 | CC(C)n1nc(C(=O)NCc2ccc(NC(=O)N3CC4CC(C3)O4)cc2)c2c1CCN(c1ccc(C(=O)N(C)C)cn1)C2 [Example 184, N-(4-((5-(5-(dimethylcarbamoyl)pyridin-2-yl)-1-isopropyl-4,5,6,7-tetrahydro-1H-pyrazolo[4,3-c]pyridine-3-carboxamido)methyl)phenyl)-6-oxa-3-azabicyclo[3.1.1]heptane-3-carboxamide] | – | – | – | 7.57 | 7.04
